Reference: patent US5496947A, “Quinolone carboxylic acid derivatives” (Dong Wha Pharmaceutical Industrial Co., Ltd., priority 1994, dated 1996)
Read-outs that look alike come from different tables or passages of the source.

Assays:
[1] = test system: Acinetobacter calcoaceticus; assay: MIC, 2-fold dilution method in micro-well plate, A. calcoaceticus; type: cell-based
[2] = test system: Citrobacter freundii ATCC 8090; assay: MIC, 2-fold dilution method in micro-well plate, C. freundii; type: cell-based; conditions: C. freundii ATCC8090, 37° C., read-out: Minimum Inhibitory Concentration
How it was run: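 Broth 2-fold microdilution; compounds tested as hydrochloride salts in sterile water. Inoculum from overnight BHI broth culture at 37° C., final about (10^5-10^6)/2 cfu/ml per well; MIC read after incubation at 37° C.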

[3] = test system: Enterobacter aerogenes ATCC 13048; assay: MIC, 2-fold dilution method in micro-well plate, E. aerogenes; type: cell-based; conditions: Klebsiella aerogenes, ATCC13048, read-out: Minimum Inhibitory Concentration
How it was run: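 Two-fold broth microdilution of hydrochloride salts dissolved in sterile water (10 mg/ml stock). Inoculum from overnight BHI culture at 37° C, about (10^5–10^6)/2 cfu/ml final in well. MIC read after incubation at 37° C.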

Enterobacter cloacae = assay: MIC, 2-fold dilution method in micro-well plate, E. cloacae; type: cell-based; conditions: read-out: Minimum Inhibitory Concentration
[4] = test system: Escherichia coli ATCC 25922; assay: MIC, 2-fold dilution method in micro-well plate, E. coli; type: cell-based
How it was run: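 Broth two-fold microdilution of hydrochloride salts in water against E. coli ATCC 25922 grown overnight in BHI at 37° C. Final inoculum about (10^5 -10^6)/2 cfu/ml; after incubation at 37° C, MIC was recorded.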

[5] = test system: Haemophilus influenza ATCC 35056; assay: MIC, 2-fold dilution method in micro-well plate, H. influenzae; type: cell-based; conditions: H. influenzae ATCC35056, 37° C.; read-out: Minimum Inhibitory Concentration
How it was run: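 MIC by 2-fold broth microdilution; compounds as hydrochloride salts in sterile water (10 mg/ml stock). Overnight BHI culture inoculated at about (10^5-10^6)/2 cfu/ml final; MIC read after cultivation at 37° C.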

[6] = test system: Klebsiella pneumoniae ATCC 13883; assay: MIC, 2-fold dilution method in micro-well plate, K. pneumoniae; type: cell-based
How it was run: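 Two-fold broth dilution in micro-wells of compound as hydrochloride salt in water. Overnight BHI culture at 37 °C inoculated to about (10^5–10^6)/2 cfu/ml final. MIC read after incubation at 37 °C.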

[7] = test system: Proteus vulgaris ATCC 13315; assay: MIC, 2-fold dilution method in micro-well plate, P. vulgaris; type: cell-based
How it was run: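 Two-fold broth dilution in micro-well plates; compounds tested as hydrochloride salts in water. Bacteria from overnight BHI broth culture at 37 °C inoculated to about (10^5–10^6)/2 cfu/ml final; MIC read after incubation at 37 °C.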

[8] = test system: Pseudomonas aeruginosa ATCC 27853; assay: MIC, 2-fold dilution method in micro-well plate, P. aeruginosa; type: cell-based; conditions: P. aerugirnosa ATCC27853, 37° C., read-out: Minimum Inhibitory Concentration
How it was run: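 MIC was recorded after 37° C incubation of bacteria with serial two-fold dilutions of compound. Bacteria came from an overnight 37° C BHI culture; the final inoculum was about (10^5-10^6)/2 cfu/ml. Compounds were tested as hydrochloride salts diluted in sterile water from a 10 mg/ml stock.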

[9] = test system: Salmonella typhimurium ATCC 14028; assay: MIC, 2-fold dilution method in micro-well plate, S. typhimurium; type: cell-based; conditions: Salmonella enterica, read-out: Minimum Inhibitory Concentration
How it was run: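 Twofold broth microdilution with overnight BHI culture at 37 °C; inoculum about (10^5-10^6)/2 cfu/ml in wells. Compounds tested as hydrochloride salts from 10 mg/ml aqueous stock; MIC read after incubation at 37 °C.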

[10] = test system: Shigella flexneri ATCC 12022; assay: MIC, 2-fold dilution method in micro-well plate, S. flexneri; type: cell-based; conditions: S. flexneri ATCC12022, 37° C., read-out: Minimum Inhibitory Concentration
How it was run: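 Two-fold broth dilution in microwell plates; compounds as hydrochloride salts in sterile water. Overnight BHI-broth culture at 37 °C used as inoculum, giving about (10^5–10^6)/2 cfu/ml per well. MIC read after cultivation at 37 °C.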

[11] = test system: Shigella sonnei ATCC 25931; assay: MIC, 2-fold dilution method in micro-well plate, S. sonnei; type: cell-based; conditions: S. sonnei ATCC25931, 37° C., read-out: Minimum Inhibitory Concentration
How it was run: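 Broth microdilution with 2-fold serial dilutions of compounds as hydrochloride salts in water. Overnight BHI culture of S. sonnei at 37° C added to give about (10^5-10^6)/2 cfu/ml per well. MIC read after incubation at 37° C.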

[12] = test system: Serratia marcescens ATCC 8100; assay: MIC, 2-fold dilution method in micro-well plate, S. marcescens; type: cell-based
How it was run: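 Broth microdilution (2-fold series) of hydrochloride salts in water; S. marcescens from overnight BHI culture at 37 °C inoculated to about (10^5-10^6)/2 cfu/ml. MIC read after cultivation at 37 °C.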

[13] = test system: Streptococcus faecalis ATCC 19433; assay: MIC, 2-fold dilution method in micro-well plate, S. faecalis ATCC 19433; type: cell-based; conditions: Enterococcus faecalis; S. faecalis ATCC19433, 37° C.; read-out: Minimum Inhibitory Concentration
How it was run: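 Broth microdilution (2-fold series) with test compounds as hydrochloride salts in sterile water; overnight BHI culture at 37 °C inoculated to about (10^5-10^6)/2 cfu/ml per well. MIC read after incubation at 37 °C.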

[14] = test system: Streptococcus faecalis ATCC 29212; assay: MIC, 2-fold dilution method in micro-well plate, S. faecalis ATCC 29212; type: cell-based; conditions: Enterococcus faecalis; S. faecalis ATCC29212, 37° C.; read-out: Minimum Inhibitory Concentration
How it was run: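 Compounds were tested as hydrochloride salts by 2-fold serial dilution in water in micro-well plates. Final inoculum was about (10^5-10^6)/2 cfu/ml from overnight BHI broth culture. MIC was read after culture at 37° C.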

[15] = test system: Streptococcus pneumoniae ATCC 6303; assay: MIC, 2-fold dilution method in micro-well plate, S. pneumoniae; type: cell-based; conditions: S. pneuinoniae ATCC6303, 37° C., read-out: Minimum Inhibitory Concentration
How it was run: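 MIC by 2-fold serial microdilution of compounds as hydrochloride salts in water, against a BHI-grown overnight culture. Final inoculum was about (10^5–10^6)/2 cfu/ml. Plates were incubated at 37° C before the minimum inhibitory concentration was read.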

[16] = test system: Streptococcus pyrogens ATCC 19615; assay: MIC, 2-fold dilution method in micro-well plate, S. pyrogens; type: cell-based; conditions: S. pyrogenes ATCC19615, 37° C., read-out: Minimum Inhibitory Concentration
How it was run: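 Inoculum from overnight 37° C brain-heart infusion culture gave roughly (10^5-10^6)/2 cfu/mL per well against two-fold serial dilutions of hydrochloride-salt compound in water. Lowest concentration inhibiting growth after 37° C incubation taken as MIC.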

[17] = Pharmacokinetic properties in ICR mouse, oral and subcutaneous, Bio-Assay (Agar well method); type: in vivo; conditions: 40 mg/kg, average of four tests; for AUC / Cmax / Tmax / bioavailability / half-life: blood; for dose excreted: urine, read-out: Urine Recovery
Method: The pharmacokinetic properties are tested by orally administrating and subcutaneously injecting a test compound and a substance for control to a ICR Mouse with 22 g±10% weight, drawing blood after 10, 20, 30, 45, 60, 90, 120, 150, 180 and […] and analyzed by Bio-Assay (Agar well method).

[18] = A. calcoaceticus ATCC8090 (as in tables), 37° C., read-out: Minimum Inhibitory Concentration
[19] = E. coli ATCC25922, 37° C., read-out: Minimum Inhibitory Concentration
[20] = ATCC13883, read-out: Minimum Inhibitory Concentration
[21] = P. vulgaris ATCC13315, 37° C., read-out: Minimum Inhibitory Concentration
[22] = ATCC8100, read-out: Minimum Inhibitory Concentration

Compound | MIC [2] | MIC [3] | MIC [5] | MIC [8] | MIC [9] | MIC [10] | MIC [11] | MIC [13] | MIC [14] | MIC [15] | MIC [16] | AUC ([17]; po, P.O) | Cmax ([17]; po, P.O) | Tmax ([17]; po, P.O) | bioavailability ([17]; po, P.O) | half-life ([17]; po, P.O) | AUC ([17]; sc, S.C) | Cmax ([17]; sc, S.C) | Tmax ([17]; sc, S.C) | half-life ([17]; sc, S.C) | other results
CC1CN(c2nc3c(cc2F)c(=O)c(C(=O)O)cn3-c2ccc(F)cn2)CCN1.Cl (stereo not drawn) [Example 14, 1-(5-fluoro-2-pyridyl)-6-fluoro-7-(3-methyl-1-piperazinyl)-1,4-dihydro-4-oxo-1,8-naphthyridine-3-carboxylic acid hydrochloride] | 0.625 µg/mL | 1.25 µg/mL | 1.25 µg/mL | 1.25 µg/mL | 1.25 µg/mL | 0.156 µg/mL | 0.078 µg/mL | 5 µg/mL | 2.5 µg/mL | 5 µg/mL | 10 µg/mL | 12500 ng·h/mL | 2120 ng/mL | 0.87 h | 44% | 3.81 h | 28100 ng·h/mL | 4280 ng/mL | 0.6 h | 7.28 h | MIC [1, 18]: 0.625 µg/mL; MIC (Enterobacter cloacae; E. cloacae ATCC23355 (as in tables), 37° C.): 0.625 µg/mL; MIC [4, 19]: 0.313 µg/mL; MIC [6, 20]: 1.25 µg/mL; MIC [7, 21]: 0.625 µg/mL; MIC ([12]; S. marcescens ATCC8100, 37° C., read-out: Minimum Inhibitory Concentration): 0.313 µg/mL; dose excreted ([17]; po, P.O): 58.9%; dose excreted ([17]; sc, S.C): 21.1%
CC1CN(c2cc3c(cc2F)c(=O)c(C(=O)O)cn3-c2ccc(F)cn2)CCN1.Cl (stereo not drawn) [Example 19, 1-(5-fluoro-2-pyridyl)-6-fluoro-7-(3-methyl-1-piperazinyl)-1,4-dihydro-4-oxoquinoline-3-carboxylic acid hydrochloride] | 1.25 µg/mL | 0.625 µg/mL | 0.625 µg/mL | 0.625 µg/mL | 0.313 µg/mL | 0.313 µg/mL | 0.313 µg/mL | 5 µg/mL | 5 µg/mL | 5 µg/mL | 10 µg/mL | 16900 ng·h/mL | 3110 ng/mL | 0.87 h | 72.7% | 8.42 h | 23300 ng·h/mL | 5110 ng/mL | 0.87 h | 5.32 h | MIC [1, 18]: 1.25 µg/mL; MIC (Enterobacter cloacae): 0.625 µg/mL; MIC [4, 19]: 0.078 µg/mL; MIC ([6]; K. pneumoniae ATCC13883, 37° C., read-out: Minimum Inhibitory Concentration): 1.25 µg/mL; MIC [7, 21]: 0.156 µg/mL; MIC [12, 22]: 0.625 µg/mL; dose excreted ([17]; po, P.O): 29%; dose excreted ([17]; sc, S.C): 48.7%
Cc1c(F)c(N2CCN(C)CC2)cc2c1c(=O)c(C(=O)O)cn2-c1ccc(F)cn1.Cl [Example 28, 5-methyl-7-(4-methyl-1-piperazinyl)-1-(5-fluoro-2-pyridyl)-6-fluoro-1,4-dihydro-4-oxoquinoline-3-carboxylic acid hydrochloride] | 2.5 µg/mL | 0.625 µg/mL | 0.313 µg/mL | 1.25 µg/mL | 1.25 µg/mL | 0.625 µg/mL | 1.25 µg/mL | 10 µg/mL | 5 µg/mL | 10 µg/mL | 10 µg/mL | 62400 ng·h/mL | 6360 ng/mL | 0.87 h | 81.3% | 7.57 h | 76100 ng·h/mL | 6940 ng/mL | 1 h | 7.26 h | MIC ([1]; ATCC8090, read-out: Minimum Inhibitory Concentration): 1.25 µg/mL; MIC (Enterobacter cloacae): 0.625 µg/mL; MIC ([4]; ATCC25922, read-out: Minimum Inhibitory Concentration): 1.25 µg/mL; MIC [6, 20]: 1.25 µg/mL; MIC ([7]; ATCC13315, read-out: Minimum Inhibitory Concentration): 0.625 µg/mL; MIC [12, 22]: 1.25 µg/mL; dose excreted ([17]; po, P.O): 25.2%; dose excreted ([17]; sc, S.C): 13.4%
